Data from article PMC12314110, “Evaluation of Potential Effects of CYP3A Inhibition and CYP3A Induction on the Pharmacokinetics of Fruquintinib in Healthy Subjects” (Clinical Pharmacology in Drug Development, 2025).

Assays:
[1] = parameters: method as in PMID 9925057; details: cited from earlier work
[2] = Safety assessments (adverse events) in healthy subjects; type: in vivo, human; details: Part B, after rifampin alone (Treatment Period 2); back pain, 1/14 subjects, mild (Grade 1), unrelated to study treatment
Protocol: Safety was assessed by evaluation of adverse events (AEs), serious AEs, AEs of special interest, physical examinations, vital signs, single 12‐lead electrocardiograms and cardiac monitoring, and clinical laboratory data. All AEs were coded using the Medical Dictionary for Regulatory Activities Version 23.0, and their severity was graded using the National Cancer Institute Common Terminology Criteria for Adverse Events Version 5.0.

## CO[C@H]1/C=C/O[C@@]2(C)Oc3c(C)c(O)c4c(O)c(c(/C=N/N5CCN(C)CC5)c(O)c4c3C2=O)NC(=O)/C(C)=C\C=C\[C@H](C)[C@H](O)[C@@H](C)[C@@H](O)[C@@H](C)[C@H](OC(C)=O)[C@@H]1C [rifampin, reference compound]
[1]
  reduction of absorption when ingested with food: approximately 30%
[2]
  treatment‐emergent AE incidence: 7.1%
